Assay results published in the supplement of paper PMC10307832.

Tests used:
Assay in all cases: relative viability (nuclei count vs DMSO), 5 days (fraction); higher = more cells survive
IPA-3 = compound: C1=CC=C2C(=C1)C=CC(=C2SSC3=C(C=CC4=CC=CC=C43)O)O [IPA-3]
How it was run: (§1)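 Only plates meeting two conditions passed: control CV below 25% and at least one doubling. Lung cancer cell lines, kept overnight at 37 °C in 1536-well plates, were pinned with five library-drug doses (not always all listed) √10 apart on vehicle-anchored plates and grown 5 days without medium change. A one-step fix, permeabilisation and Hoechst stain preceded 4× imaging and MetaXpress nuclear counting. Viability equals treated-well nuclei divided by vehicle-well nuclei, as the median over plates.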

Doramapimod = compound: Cc1ccc(-n2nc(C(C)(C)C)cc2NC(=O)Nc2ccc(OCCN3CCOCC3)c3ccccc23)cc1 [Doramapimod]
How it was run: as §1

RAF265 = compound: Cn1c(Nc2ccc(C(F)(F)F)cc2)nc2cc(Oc3ccnc(-c4ncc(C(F)(F)F)[nH]4)c3)ccc21 [RAF265]
How it was run: as §1

Doramapimod + Dasatinib = compound: Cc1ccc(-n2nc(C(C)(C)C)cc2NC(=O)Nc2ccc(OCCN3CCOCC3)c3ccccc23)cc1 [Doramapimod] + Cc1nc(Nc2ncc(C(=O)Nc3c(C)cccc3Cl)s2)cc(N2CCN(CCO)CC2)n1 [Dasatinib] (partner 0.075 µM)
How it was run: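 Dosing by pin tool came one day after lung cancer cell lines were seeded in 1536-well plates, using either one drug or a fixed anchor-drug dose plus five library-drug doses (not always all listed) in √10 steps. After 5 days, nuclei were counted on 4× images. Relative viability is treated-well nuclei count divided by vehicle-well nuclei count, and values are medians of duplicate plates.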

| Cell Line | relative viability (IPA-3; 0.2 µM) | relative viability (IPA-3; 0.6325 µM) | relative viability (IPA-3; 2 µM) | relative viability (IPA-3; 6.325 µM) | relative viability (IPA-3; 20 µM) | relative viability (Doramapimod; 0.02 µM) | relative viability (Doramapimod; 0.06325 µM) | relative viability (Doramapimod; 0.2 µM) | relative viability (Doramapimod; 0.6325 µM) | relative viability (Doramapimod; 2 µM) | relative viability (RAF265; 0.01 µM) | relative viability (RAF265; 0.03162 µM) | relative viability (RAF265; 0.1 µM) | relative viability (RAF265; 0.3162 µM) | relative viability (RAF265; 1 µM) | relative viability (Doramapimod + Dasatinib; first compound 0.02 µM) | relative viability (Doramapimod + Dasatinib; first compound 0.06325 µM) | relative viability (Doramapimod + Dasatinib; first compound 0.2 µM) | relative viability (Doramapimod + Dasatinib; first compound 0.6325 µM) | relative viability (Doramapimod + Dasatinib; first compound 2 µM) |
| --- | --- | --- | --- | --- | --- | --- | --- | --- | --- | --- | --- | --- | --- | --- | --- | --- | --- | --- | --- | --- |
| HCC-44 | 0.953 | 0.922 | 0.998 | 0.899 | 0.968 | 1.03 | 1.1 | 1.1 | 0.84 | 0.983 | 0.971 | 0.919 | 1.02 | 1.05 | 0.992 |  |  |  |  |  |
| HCC-78 | 1.04 | 0.907 | 1.04 | 1.04 | 0.994 | 0.962 | 1.07 | 1.06 | 1.14 | 1.02 | 0.947 | 1.12 | 1.15 | 0.927 | 0.878 | 0.359 | 0.431 | 0.364 | 0.382 | 0.304 |
| HCC-366 | 1.04 | 0.976 | 0.98 | 1.03 | 1.05 | 0.951 | 0.979 | 1 | 1.04 | 0.99 | 1.03 | 0.99 | 1.06 | 0.975 | 0.947 | 0.605 | 0.549 | 0.548 | 0.548 | 0.458 |
| HCC-827 | 1.07 | 1.05 | 1.05 | 0.955 | 0.978 | 1.02 | 1.05 | 1.07 | 0.902 | 0.863 | 1.03 | 0.963 | 1.05 |  | 0.903 | 0.272 | 0.238 | 0.286 | 0.355 | 0.142 |
| HOP-62 | 1.08 | 0.925 | 0.986 | 1 | 1.09 | 1.02 | 1.06 | 1.08 | 0.931 | 0.975 | 1.12 | 0.989 | 0.952 | 1 | 0.834 | 0.618 | 0.705 | 0.633 | 0.843 | 0.594 |
| IA-LM | 1.15 | 0.758 | 1.03 | 0.876 | 0.892 | 0.921 | 0.977 | 0.906 | 0.982 | 0.913 | 0.941 | 0.855 | 0.91 | 0.801 | 0.755 |  |  |  |  |  |
| LC-2-ad | 1.05 | 0.958 | 0.978 | 1.03 | 0.992 | 0.991 | 1.02 | 1.07 | 1.02 | 0.923 | 1.09 | 0.989 | 1.11 | 0.748 | 0.484 | 0.464 | 0.514 | 0.638 | 0.561 | 0.391 |
| LCLC-97TM1 | 1.04 | 0.868 | 0.851 | 0.908 | 0.981 | 0.916 | 1.04 | 0.961 | 0.811 | 0.86 | 1.04 | 0.899 | 0.531 | 0.637 | 0.418 | 0.837 | 0.87 | 0.768 | 0.699 | 0.591 |
| LCLC-103H | 1.12 | 0.962 | 0.876 | 0.99 | 1.07 | 1.02 | 1.01 | 0.887 | 0.988 | 0.929 | 1.01 | 1.05 | 0.919 | 0.78 | 0.72 | 0.451 | 0.488 | 0.374 | 0.448 | 0.44 |
| LK-2 | 1.06 | 1.03 | 0.995 | 1.01 | 1.19 | 0.909 | 0.981 | 0.926 | 0.741 | 0.849 | 0.963 | 1 | 1.09 | 1.07 | 0.714 | 0.241 | 0.278 | 0.202 | 0.213 | 0.22 |
| LOU-NH91 | 0.953 | 0.94 | 1.01 | 1.01 | 1.19 | 1.09 | 0.996 | 1.05 | 1.08 | 0.691 | 1.05 | 0.976 | 0.905 | 0.733 | 0.753 | 0.559 | 0.535 | 0.599 | 0.671 | 0.365 |
| LU99A | 1.02 | 0.89 | 0.932 | 0.919 | 0.98 | 0.944 | 0.906 | 1.03 | 1 | 0.949 | 0.971 | 0.987 | 0.705 | 0.492 | 0.373 | 0.488 | 0.498 | 0.413 | 0.612 | 0.552 |
| LXF-289 | 1.08 | 0.999 | 1.04 | 1.06 | 1.13 | 0.999 | 0.986 | 1.01 | 0.982 | 0.943 | 1.02 | 1.1 | 0.976 | 0.807 | 0.768 | 0.229 | 0.216 | 0.207 | 0.252 | 0.247 |
| NCI-H23 | 1.08 | 0.944 | 0.895 | 0.917 | 0.923 | 0.966 | 1.04 | 1.06 | 0.864 | 0.946 | 0.966 | 0.847 | 0.906 | 0.416 | 0.41 | 0.734 | 0.709 | 0.856 | 0.836 | 0.759 |
| NCI-H1299 | 1.1 | 0.995 | 1.02 | 0.94 | 0.98 | 1.04 | 1.02 | 1.02 | 1.05 | 0.967 | 1.08 | 0.97 | 0.961 | 0.793 | 0.616 |  |  |  |  |  |
| NCI-H1648 | 1.25 | 0.889 | 1.02 | 0.65 | 0.793 | 0.925 | 1.19 | 0.898 | 0.835 | 0.719 | 0.936 | 0.842 | 0.919 | 0.593 | 0.589 |  |  |  |  |  |
| NCI-H1703 | 1.27 | 0.86 | 1.02 | 0.935 | 1.04 | 0.923 | 0.918 | 0.876 | 1.11 | 0.612 | 0.783 | 0.792 | 0.831 | 0.652 | 0.352 |  |  |  |  |  |
